This note sets out measurements from patent US5789434A, “Derivatives of substituted 4-biarylbutyric acid as matrix metalloprotease inhibitors” (priority 1995, dated 1998).

Experiment [1] deals with T1, MMP-9 (Homo sapiens, UniProt P14780).
T1 construct: from tissue; host or cells: human polymorphonuclear leukocytes (PMN) from whole blood (New York Blood Center), PMA-stimulated supernatant
The experiment in a line: Automated MMP Profiling Assay, MMP-9 fluorogenic. Type of experiment: biochemical. The following applies: 96-well automated, P218.

Experiment [2] concerns the target T2, MMP-3 (Homo sapiens, UniProt P08254).
T2 construct: Truncated Prostromelysin-257 was expressed in a soluble form in E.coli; made in house; host or cells: E. coli
The experiment in a line: Automated MMP Profiling Assay, MMP-3 fluorogenic. Type of experiment: biochemical. Particulars: 96-well automated, P218. From the text:
This assay with each invention compound was run with the three enzymes MMP-3, MMP-9 and MMP-2 in parallel as adapted for a 96-well microtitre plate using a Hamilton A® workstation.

Experiment [3] has as its target T3, MMP-2 (Homo sapiens, UniProt P08253).
T3 sequence (P08253 110-660): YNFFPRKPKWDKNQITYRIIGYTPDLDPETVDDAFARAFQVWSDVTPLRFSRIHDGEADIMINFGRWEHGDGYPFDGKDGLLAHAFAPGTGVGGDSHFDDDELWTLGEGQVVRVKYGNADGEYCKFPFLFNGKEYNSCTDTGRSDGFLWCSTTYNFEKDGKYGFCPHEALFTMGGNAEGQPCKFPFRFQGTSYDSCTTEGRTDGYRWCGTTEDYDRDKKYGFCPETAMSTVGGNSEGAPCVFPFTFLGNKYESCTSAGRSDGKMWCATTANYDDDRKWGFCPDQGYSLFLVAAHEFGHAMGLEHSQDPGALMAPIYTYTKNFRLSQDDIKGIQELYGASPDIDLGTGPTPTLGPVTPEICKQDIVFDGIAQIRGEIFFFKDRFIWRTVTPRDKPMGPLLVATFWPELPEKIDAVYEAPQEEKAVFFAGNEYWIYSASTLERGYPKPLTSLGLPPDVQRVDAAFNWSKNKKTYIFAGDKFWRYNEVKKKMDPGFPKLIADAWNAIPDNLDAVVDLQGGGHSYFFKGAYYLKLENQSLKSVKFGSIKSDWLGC
The experiment in a line: Automated MMP Profiling Assay, MMP-2 fluorogenic. Type of experiment: biochemical. Particulars: 96-well automated, P218; read-out: MMP-2 Fluorogenic IC50 (profiling).

Experiment [4] concerns Femoral Lesion. The experiment in a line: Inhibition of Cartilage Lesions in a Guinea Pig Model of Osteoarthritis. Type of experiment: in vivo. The following applies: 15 mg/kg oral gavage daily, 33 days, vs vehicle. On the procedure:
Pathol. 1987 24, 444-448. Seven of the invention compounds were dissolved at 15 mg/ml in a vehicle of 10 mg/ml Tween 80, 190 mg/ml PEG and 0.44 mg/ml ethanolamine. This concentrate was diluted 1:1 with water before dosing (final concentration 7.5 mg/ml). On the 5th day before surgery, each animal received either a test compound plus vehicle or vehicle only administered by oral gavage each day at 15 mg/kg (2 ml/kg) up to surgery and then for four weeks post surgery (total 33 days of dosing). At the beginning of dosing and twice weekly thereafter the animals were weighed and the dose of the respective compounds or vehicles were calculated and adjusted if necessary. At the conclusion of the study the animals were euthanized by CO2 asphyxiation and their stifles removed, partially dissected and placed in 10% neutral buffered formalin. The extent of lesion development on the femoral head was measured by computer assisted surface area analysis.

The subject of experiment [5] is MMP. The experiment in a line: MMP inhibitory activity, comparison in words. Type of experiment: biochemical.
Experiment [6] deals with T2, MMP-3. In words: Primary Thiopeptilide MMP-3 Inhibition Assay. Type of experiment: biochemical. Particulars: for IC50: pH 6.5, 13 nM stromelysin, x (n) = average of n determinations, read-out: MMP-3 Thiopep. IC50; for inhibition at 5 µM: read-out: MMP-3 Thiopep. % inhibition.
Procedure: Enzyme: recombinant stromelysin expressed in E.coli and purified as described above. […] The protocols for the assay of compounds as stromelysin inhibitors was the same as that used for MMP-9 except that the assay buffer was 50 mM MES, pH 6.5 containing 150 mM NaCl, 10 mM CaCl2, 0.005% Brij, and 1% DMSO.
The target in experiment [7] is T2, MMP-3. The experiment in a line: Secondary P218 Quenched fluorescence Assay for MMP-3 Inhibition. Type of experiment: biochemical. Particulars: P218 substrate, pH 6.5, 25° C.; x (n) = average of n determinations; read-out: MMP-3 Fluorogenic IC50. On the procedure: Truncated Prostromelysin-257 was expressed in a soluble form in E.coli as described by Marcy et al., Biochemistry, 30, 6476-6483, 1991. Soluble truncated prostromelysin was purified by a modification of the monoclonal antibody affinity chromatography method described by Housley et al., J. Biol. Chem., 268, 4481-87, 1993.
The assay is run continuously in a 3.0 ml cuvette using a Perkin-Elmer LS 50 B Spectrofluorimeter at 25° C. in a final volume of 2.0 mls. P218 substrate (10 mM) in 100% DMSO is diluted to a final concentration of 2.0 micromolar (μM) into assay buffer: 50 mM MES, pH 6.5 containing 150 mM NaCl, 10 mM CaCl2, 0.005% Brij-35, and 1%(v/v) DMSO. Test compounds(10 mM) in DMSO are diluted in assay buffer at an initial concentration of 10 to 100 micromolar. […] The reaction is initiated by the addition of recombinant stromelysin (MMP-3) at a final concentration of 1.0 nM. Upon peptide cleavage, the fluorescent MCA group was detected using an excitation wavelength of 328 nanometers and an emission wavelength of 393 nanometers.

Experiment [8] deals with T1, MMP-9. In words: Thiopeptilide MMP-9 Inhibition Assay. Type of experiment: biochemical. Particulars: for IC50: pH 6.5, x (n) = average of n determinations, read-out: MMP-9: Thiopep. IC50; for inhibition at 5 µM: read-out: MMP-9: Thiopep. % inhibition.
In experiment [9] the target is T3, MMP-2. In words: Secondary P218 Quenched fluorescence Assay for MMP-2 Inhibition. Type of experiment: biochemical. Particulars: P218 substrate, 0.2 nM enzyme; x (n) = average of n determinations; read-out: MMP-2 Fluorogenic IC50.

Read-outs that look alike come from different tables or passages of the source.

T2 sequence (P08254 100-274 limits assumed): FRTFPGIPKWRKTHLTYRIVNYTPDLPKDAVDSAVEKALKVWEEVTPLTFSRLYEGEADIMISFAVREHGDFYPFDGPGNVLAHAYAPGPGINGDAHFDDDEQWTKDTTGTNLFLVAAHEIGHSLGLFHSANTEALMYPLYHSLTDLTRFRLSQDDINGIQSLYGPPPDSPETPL
T1 sequence (P14780 107-707 limits assumed): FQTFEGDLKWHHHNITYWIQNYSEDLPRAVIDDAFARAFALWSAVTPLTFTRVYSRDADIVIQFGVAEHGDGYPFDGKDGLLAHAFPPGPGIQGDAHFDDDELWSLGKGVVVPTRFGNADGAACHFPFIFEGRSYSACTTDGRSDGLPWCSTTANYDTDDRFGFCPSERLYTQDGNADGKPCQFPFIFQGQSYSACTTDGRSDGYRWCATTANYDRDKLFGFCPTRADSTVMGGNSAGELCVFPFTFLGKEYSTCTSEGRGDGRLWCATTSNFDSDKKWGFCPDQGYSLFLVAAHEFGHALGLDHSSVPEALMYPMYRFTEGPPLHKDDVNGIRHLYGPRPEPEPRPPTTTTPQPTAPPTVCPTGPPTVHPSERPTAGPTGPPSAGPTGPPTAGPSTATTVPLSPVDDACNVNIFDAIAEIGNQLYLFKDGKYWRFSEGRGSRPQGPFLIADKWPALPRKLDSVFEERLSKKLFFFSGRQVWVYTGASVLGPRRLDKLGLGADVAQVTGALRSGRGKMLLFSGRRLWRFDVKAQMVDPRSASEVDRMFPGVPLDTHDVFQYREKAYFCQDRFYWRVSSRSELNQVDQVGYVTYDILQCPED

In the case of `O=C(O)[C@@H]1[C@@H](C(=O)c2ccc(-c3ccc(Cl)cc3)cc2)CC[C@H]1Sc1ccccc1` [Example 296, (1S,2R,5S)-trans-5-[4-(4-chlorophenyl)phenylcarbonyl]-trans-2-phenylthiocyclopentanecarboxylic acid], the IC50 was found to be 111 nM in experiment [1], 44 nM in [2] and 6.4 nM in experiment [3]. The “% Inhibition of Femoral Lesion Surface Area” value (from here on “% Inhibition”) in experiment [4] was 31%.
As to `O=C(C[C@@H](CCN1C(=O)c2ccccc2C1=O)C(=O)O)c1ccc(-c2ccc(Cl)cc2)cc1` [Example 269, 4-[4-(4-chlorophenyl)phenyl]-4-oxo-2R-(2-phthalimidoethyl)butanoic acid], the IC50 in experiment [1] was determined as 197 nM; in experiment [2] it was 1030 nM; in experiment [3] it was 165 nM. Moreover, the “MMP inhibitory activity (in words)” value in experiment [5] is given as “less active”.
Regarding `O=C(O)[C@@H]1[C@@H](C(=O)c2ccc(-c3ccc(Cl)cc3)cc2)CC[C@H]1Sc1ccccc1` (relative stereo) [Example 294, trans-5-[4-(4-chlorophenyl)phenylcarbonyl]-trans-^2-phenylthiocyclopentanecarboxylic acid], the concentration for half-maximal inhibition (IC50) in experiment [1] worked out at 176 nM; in [2], 58 nM; in [6] it was 47 nM; in experiment [7] it was 14 nM; in [3], 11 nM; in [8], 56 nM. The half-inhibitory concentration (IC50) in experiment [9] is 4 nM.
As to `O=C(O)[C@H]1[C@H](CN2C(=O)c3ccccc3C2=O)CC[C@@H]1C(=O)c1ccc(-c2ccc(Cl)cc2)cc1` [Example 361, (1S,2R,5S)-trans-5-[4-(4-chlorophenyl)phenylcarbonyl]-trans-2-phthalimidomethylcyclopentanecarboxylic acid], the IC50 in experiment [1] is 0.5 nM; in experiment [2], 3 nM; in experiment [3] it was 0.81 nM. Besides, in experiment [5], the “MMP inhibitory activity (in words)” value was “most active”.
In the case of `O=C(O)[C@@H]1CC[C@H]1C(=O)c1ccc(-c2ccc(Cl)cc2)cc1` (relative stereo) [Example 291, Cyclobutanecarboxylic acid, 2-[(4'-chloro[1,1'-biphenyl]-4-yl)carbonyl]-, trans-], the “MMP inhibitory activity (in words)” value in [5] was “much more active”. In addition, the values for the IC50 in [6] and in [8] were 437 nM and 2700 nM, respectively.
As for `CCN(CC)C(=O)c1cccc(CC[C@@H](CC(=O)c2ccc(-c3ccc(Cl)cc3)cc2)C(=O)O)c1` [Example 145, 4-[4-(4-chlorophenyl)phenyl]-4-oxo-2S-[2-(3-N,N-diethylcarbamoyl)phenyl]butanoic acid], the IC50 in experiment [1] came out at 19 nM; in experiment [2], 7.5 nM; in [3], 2.1 nM. Further, the “% Inhibition” value in [4] is 46.4%.
As to `O=C(CC(CCCc1ccccc1)C(=O)O)c1ccc(-c2ccc(Cl)cc2)cc1` (centres unmarked) [Example 114, 4-[4-(4-chlorophenyl)phenyl]-4-oxo-2-(3-phenylpropyl)butanoic acid], the IC50 in experiment [1] worked out at 439 nM; in experiment [2], 246 nM; in [6], 244 nM; in experiment [7], 120 nM; in experiment [3], 68 nM; in experiment [8], 285 nM. Moreover, in [9], the IC50 is 25 nM.
As for `O=C(O)CCC(=O)c1ccc(-c2ccccc2)cc1` [fenbufen, 3-biphenoylpropanoic acid, reference compound], the “MMP inhibitory activity (in words)” value in experiment [5] is given as “Only minor activity, at best”. Moreover, the inhibition at 5 µM in experiment [8] was 2%. In addition, the IC50 in [9] turned out to be 1000 nM.
In the case of `O=C(CC(CCCc1ccccc1)C(=O)O)c1ccc(-c2ccccc2)cc1` (centres unmarked) [Example 135], the “MMP inhibitory activity (in words)” value in experiment [5] was “low potency”. Also, the IC50 in experiment [6] and in [7] was 2800 nM each time.
For `O=C(C[C@H](CCCc1ccccc1)C(=O)O)c1ccc(-c2ccc(Cl)cc2)cc1` [Example 116, 4-[4-(4-chlorophenyl)phenyl]-4-oxo-2S-(3-phenylpropyl)butanoic acid], the 50% inhibitory concentration (IC50) in experiment [1] was found to be 185 nM; in experiment [2], 137 nM; in [3], 38 nM. Besides, the “% Inhibition” value in [4] is 0%.
Regarding `O=C(C[C@H](CCCc1ccccc1)C(=O)O)c1ccc(-c2ccc(OCc3ccccc3)cc2)cc1` [Example 100, 4-[4-(4-benzyloxyphenyl)phenyl]-4-oxo-2S-(3-phenylpropyl)butanoic acid], the IC50 worked out at 3220 nM in experiment [1], 17 nM in experiment [2] and 14 nM in [3]. In addition, the “% Inhibition” value in experiment [4] is recorded as 37.8%.
`CC(C)CC(CC(=O)c1ccc(-c2ccccc2)cc1)C(=O)O` (stereo not drawn) [Example 13, [1,1'-Biphenyl]-4-butanoic acid, α-(2-methylpropyl)-γ-oxo-]: in [5], the “MMP inhibitory activity (in words)” value is reported as “low potency”. For the same molecule, the inhibition at 5 µM in experiment [6] turned out to be 27%; in [8] (at 5 μM), 3%.
For `CC(=O)SC(CC(=O)c1ccc(Oc2ccc(Cl)cc2)cc1)C(=O)O` (stereo not drawn) [Example 254, Benzenebutanoic acid, α-(acetylthio)-4-(4-chlorophenoxy)-γ-oxo-, reference compound], in [5], the “MMP inhibitory activity (in words)” value is recorded as “very low potency”. The inhibition at 5 µM in experiment [6] worked out at 10%; in experiment [8] (at 5 μM), 27%.
Consider `COC(=O)c1ccccc1S[C@H]1CC[C@H](C(=O)c2ccc(-c3ccc(Cl)cc3)cc2)[C@H]1C(=O)O` [Example 299, (1S,2S,5S)-trans-5-[4-(4-chlorophenyl)phenylcarbonyl]-cis-2-(2-methoxycarbonylphenylthio)cyclopentanecarboxylic acid], for which the results for the IC50 in experiment [1], in [2] and in [3] were 531 nM, 58 nM and 52 nM, respectively. Besides, the “% Inhibition” value in experiment [4] came out at 28%.
`O=C(O)[C@@H]1[C@@H](CN2C(=O)c3ccccc3C2=O)CC[C@H]1C(=O)c1ccc(-c2ccc(Cl)cc2)cc1` [Example 362, (1R,2S,5R)-trans-5-[4-(4-chlorophenyl)phenylcarbonyl]-trans-2-phthalimidomethylcyclopentanecarboxylic acid]: the values for the IC50 in experiment [1], in experiment [2] and in [3] were 100 nM, 431 nM and 183 nM, respectively. Further, in experiment [5], the “MMP inhibitory activity (in words)” value is on record as “less active”.
Consider `COC(=O)c1ccccc1SCC(CC(=O)c1ccc(-c2ccc(Cl)cc2)cc1)C(=O)O` (stereo not drawn) [Example 244, [1,1'-Biphenyl]-4-butanoic acid, 4'-chloro-α-[[[2-(methoxycarbonyl)phenyl]thio]methyl]-γ-oxo-], for which the IC50 in experiment [6] amounted to 79 nM; in experiment [7], 27 nM; in [8], 600 nM; in experiment [9], 7 nM.

Usually IC50 stands for the concentration that gives 50% inhibition. As usually defined, the inhibition is the drop in the measured response relative to a control, in per cent.
